System: TCRS containing NIH-3T3 fibroblasts cells
Assay: Detection of cellular translational control activities by TCRS reporter in drug-treated cells
Type: cell-based
Conditions: TCRS containing NIH-3T3 fibroblasts treated with drug
From the text: TCRS functions in cell lines. To examine the applicability of the TCRS in vertebrate cells we introduced the improved TCRS-vector into fibroblasts by transient transfection. […] Importantly, removal of the regulatory uORF by […] point mutation of its translation initiation site results in loss of translational controlled SR protein expression. Accordingly, the TCRS can be used to screen for drugs or to monitor pharmacological effects in tissue culture.
To examine the potential of the TCRS for detection of changes in translation control activities by external supplied drugs, we treated the TCRS containing NIH-3T3 fibroblasts cells with aminopurine and rapamycin, respectively.
Treatment with translational active drugs, such as rapamycin or aminopurine, result in differential activation of distinct translation control pathways, causing a shift in reporter protein expression. Shift in reporter expression was also observed with co-transfected expression vectors encoding eucaryotic translation initiation factors eIF2or eIF4E, or mutants thereof. Reporter protein expression shifts were dependent on an intact uORF.

Substance: aminopurine
- changes of the reporter peptide levels (PR and SR reporter protein expression from TCRS): Differential changes of the peptide levels were observed
